Consider four compounds from patent US5733927A, “Salts of glucopyranose derivative and solutions of the same” (Ono Pharmaceutical Co., Ltd., priority 1992, dated 1998).

Data set [1] is described as follows: Solubility in a mixture of water-ethanol (1:1) at 25° C. (Table 1). In kind it is physicochemical.
Data set [2] is described as follows: Solubility for injectable solvents / the solvent for the administration (stated in words). It is filed as physicochemical. The note with it: for solubility for the solvent for the administration: compared with the mixture of salts of the formula (B) and calcium salt.
Data set [3] is described as follows: Pharmacological activity (lipid A-like activity; stated in words, no test described). The note with it: sufficiency for use as a pharmaceutical agent.

SMILES strings stand for the structures. Converted amounts (≈) assume the structure as drawn. Where a name gives a salt, the structure may show the parent alone. Bounds are passed on as bounds.

Regarding `CCCCCCCCCCC[C@@H](CC(=O)N[C@H]1C(O)O[C@H](CO)[C@@H](OS(=O)(=O)O)[C@@H]1OC(=O)CCCCCCCCc1ccccc1)OC(=O)CCCCCCCCc1ccccc1` (mixture of isomers) [Reference example 5, mixture salt of calcium, sodium and magnesium of 2-deoxy-2-[(3S)-(9-phenylnonanoyloxy)tetradecanoyl]amino-3-O-(9-phenylnonanoyl)-4-O-sulfo-D-glucopyranose, reference compound], the Solubility in data set [1] was 1.5 mg/mL. For `CCCCCCCCCCC[C@@H](CC(=O)N[C@H]1C(O)O[C@H](CO)[C@@H](OS(=O)(=O)O)[C@@H]1OC(=O)CCCCCCCCc1ccccc1)OC(=O)CCCCCCCCc1ccccc1` (single isomer, unassigned) [Example 3], the “solubility for the solvent for the administration” value in data set [2] is listed as “very good solubility”. Further, the Solubility in data set [1] stood at 212 mg/mL (≈ 231 mM). Take `CCCCCCCCCCC[C@@H](CC(=O)N[C@H]1C(O)O[C@H](CO)[C@@H](OS(=O)(=O)O)[C@@H]1OC(=O)CCCCCCCCc1ccccc1)OC(=O)CCCCCCCCc1ccccc1` (single isomer, unassigned) [Example 4]: the “solubility for the solvent for the administration” value in data set [2] was “very good solubility”. In data set [1], the Solubility is over 270 mg/mL.

Consider `CCCCCCCCCCC[C@@H](CC(=O)N[C@H]1C(O)O[C@H](CO)[C@@H](OS(=O)(=O)O)[C@@H]1OC(=O)CCCCCCCCc1ccccc1)OC(=O)CCCCCCCCc1ccccc1` (stereo partly drawn) [formula (Aa), 2-Deoxy-2-[(3S)-(9-phenylnonanoyloxy)tetradecanoyl]amino-3-O-(9-phenylnonanoyl)-4-O-sulfo-D-glucopyranose, reference compound], for which the “solubility for injectable solvents” value in data set [2] (injectable solvents) is “very poor”. In addition, the pharmacological activity result in data set [3] is recorded as “sufficient pharmacological activity”.

Usually Solubility stands for how much of the substance goes into solution per volume.
